{
  "source": "patent US20240270809A1",
  "about": "“ORAL GLP RECEPTOR AGONISTS” (priority 2020, published 2024)",
  "key": {"[1]": {"biological_target": "T1, human GLP1 receptor (Homo sapiens, UniProt P43220)", "T1 construct": "expressed in transfected cells; host or cells: HEK cells, BacMam virus transduction", "T1 sequence (P43220 24-463)": "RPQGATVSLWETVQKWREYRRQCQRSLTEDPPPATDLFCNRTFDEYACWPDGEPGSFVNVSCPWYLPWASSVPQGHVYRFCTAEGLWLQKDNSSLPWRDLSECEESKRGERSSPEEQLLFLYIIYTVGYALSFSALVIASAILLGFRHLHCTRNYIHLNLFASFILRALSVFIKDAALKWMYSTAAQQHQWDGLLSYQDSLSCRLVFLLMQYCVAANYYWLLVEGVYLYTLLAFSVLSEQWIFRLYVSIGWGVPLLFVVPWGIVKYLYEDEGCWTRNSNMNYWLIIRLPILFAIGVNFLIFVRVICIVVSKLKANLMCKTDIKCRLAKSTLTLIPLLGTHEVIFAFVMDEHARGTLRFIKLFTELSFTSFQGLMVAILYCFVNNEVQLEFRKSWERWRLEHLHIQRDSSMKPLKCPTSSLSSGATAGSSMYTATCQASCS", "experiment": "cAMP accumulation assay, functional agonism of human GLP1 receptor", "type": "cell-based", "conditions": "HEK cells infected with human GLP1 receptor BacMam virus, HTRF cAMP; for Emax: HEK293, read-out: Human GLP-1R agonist cAMP Emax; for EC50: read-out: Human GLP-1R agonist cAMP pEC50 (converted)", "experimental": "(§1) CAMP production upon agonist stimulation of human GLP2 or GLP1 receptor was assessed utilizing HiRange cAMP kit (Cisbio). In brief, HEK cells were infected with either human GLP2 or GLP1 receptor BacMam virus for 24 hours and frozen for later use in the assay. […] Cells were prepared in the assay buffer (HBSS (Lonza) supplemented with 0.5 mM IBMX (Tocris)). After 45 min incubation at 37° C., the reaction was stopped by addition of the HTRF detection reagents in the lysis buffer provided in the kit."}, "[2]": {"biological_target": "T2, human GLP2 receptor (Homo sapiens, UniProt O95838)", "T2 construct": "expressed in transfected cells; host or cells: HEK cells, BacMam virus transduction", "T2 sequence (O95838 1-553)": "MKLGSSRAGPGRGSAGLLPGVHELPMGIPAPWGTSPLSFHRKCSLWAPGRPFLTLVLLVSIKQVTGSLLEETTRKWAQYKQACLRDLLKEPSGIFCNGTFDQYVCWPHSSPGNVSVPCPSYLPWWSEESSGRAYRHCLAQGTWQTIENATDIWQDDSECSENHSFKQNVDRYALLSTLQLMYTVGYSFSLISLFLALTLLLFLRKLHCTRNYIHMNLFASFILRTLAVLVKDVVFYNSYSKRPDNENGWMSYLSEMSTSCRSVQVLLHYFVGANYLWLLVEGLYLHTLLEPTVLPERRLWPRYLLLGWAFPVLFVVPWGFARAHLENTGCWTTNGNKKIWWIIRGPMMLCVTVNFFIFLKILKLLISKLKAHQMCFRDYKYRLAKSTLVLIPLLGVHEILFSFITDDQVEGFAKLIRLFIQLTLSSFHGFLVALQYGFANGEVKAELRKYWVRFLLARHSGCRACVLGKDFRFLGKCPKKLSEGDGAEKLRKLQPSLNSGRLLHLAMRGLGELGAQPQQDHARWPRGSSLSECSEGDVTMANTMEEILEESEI", "experiment": "cAMP accumulation assay, functional agonism of human GLP2 receptor", "type": "cell-based", "conditions": "HEK cells infected with human GLP2 receptor BacMam virus, HTRF cAMP; for Emax: HEK293, read-out: Human GLP-2R agonist cAMP Emax; for EC50: read-out: Human GLP-2R agonist cAMP pEC50 (converted)", "experimental": "as §1"}},
  "note": "Positions of bridges follow the written chain, without caps; N, C: chain ends. Non-standard residues stand in square brackets, D forms with d. Residues, ends and D or L forms follow the SMILES beside them. *: point of attachment. Malonyl(2,2-Me2,histaminyl) = CC(C)(C(=O)NCCc1cnc[nH]1)C(=O)*; Ala(1H-tetrazol-5-yl) = N[C@@H](Cc1nnn[nH]1)C(=O)O; αMeL = CC(C)C[C@](C)(N)C(=O)O; Nle = CCCC[C@H](N)C(=O)O; Aib = CC(C)(N)C(=O)O",
  "data": [
    {"smiles": "CCCC[C@H](NC(=O)[C@H](CCC(=O)O)NC(=O)[C@@H]1CC(=O)NCCCC[C@H](NC(=O)[C@H](CCC(=O)O)NC(=O)C(C)(C)NC(=O)[C@@H](N)Cc2c[nH]cn2)C(=O)N[C@@H](CO)C(=O)N[C@@H](Cc2ccccc2)C(=O)N[C@@H](CO)C(=O)N1)C(=O)N[C@H](Cc1ccccc1)C(=O)N[C@H](C(=O)N[C@@](C)(CC(C)C)C(=O)N[C@@H](CC(C)C)C(=O)N[C@@H](CC(=O)O)C(=O)N[C@H]1CCC(=O)NCCCC[C@@H](C(=O)N[C@@H](CC(=O)O)C(=O)N[C@@H](Cc2ccccc2)C(=O)N[C@H](C(=O)N[C@H]2CCC(=O)NCCCC[C@@H](C(=O)N[C@H](C(=O)N[C@@H](CCCCN)C(N)=O)[C@@H](C)O)NC(=O)[C@H]([C@@H](C)CC)NC(=O)[C@H](CC(C)C)NC(=O)[C@H](Cc3c[nH]c4ccccc34)NC2=O)[C@@H](C)CC)NC(=O)[C@H](C)NC(=O)[C@H](C)NC(=O)[C@H](CCCCN)NC1=O)[C@@H](C)O", "note": "[Example 28] (H-H[Aib]EKSFSDE[Nle][dF]T[αMeL]LDEKAAKDFIEWLIKTK-NH2; lactam 4-8, 16-20, 24-28 (inferred); C-terminus assumed)", "values": [
      {"measurement": "Emax", "setting": "[1]", "value": 96, "unit": "%"},
      {"measurement": "EC50", "setting": "[1]", "value": 79.4, "unit": "pM"},
      {"measurement": "Emax", "setting": "[2]", "value": 99.6, "unit": "%"},
      {"measurement": "EC50", "setting": "[2]", "value": 316, "unit": "pM"}
    ]},
    {"smiles": "CCCC[C@@H]1NC(=O)[C@H](CCC(=O)O)NC(=O)[C@@H](NC(=O)[C@H](CO)NC(=O)[C@H](Cc2ccccc2)NC(=O)[C@H](CO)NC(=O)CNC(=O)[C@H](Cc2nn[nH]n2)NC(=O)C(C)(C)C(=O)NCCc2c[nH]cn2)CCCCNC(=O)C[C@@H](C(=O)N[C@H](C(=O)N[C@@H](CC(C)C)C(=O)N[C@@H](CC(=O)O)C(=O)N[C@H]2CCC(=O)NCCCC[C@@H](C(=O)N[C@@H](CC(=O)O)C(=O)N[C@@H](Cc3ccccc3)C(=O)N[C@H](C(=O)N[C@@H](CC(N)=O)C(=O)N[C@@H](Cc3c[nH]c4ccccc34)C(=O)N[C@@H](CC(C)C)C(=O)N[C@H](C(=O)N[C@@H](CCC(N)=O)C(=O)N[C@H](C(=O)N[C@H]3CCC(=O)NCCCC[C@@H](C(N)=O)NC(=O)[C@H]([C@@H](C)O)NC(=O)[C@H]([C@@H](C)CC)NC3=O)[C@@H](C)O)[C@@H](C)CC)[C@@H](C)CC)NC(=O)C(C)(C)NC(=O)C(C)(C)NC(=O)[C@H](CCCCN)NC2=O)[C@@H](C)CC)NC(=O)[C@@H](Cc2ccccc2)NC1=O", "note": "[Example 16] ({Malonyl(2,2-Me2,histaminyl)}-[Ala(1H-tetrazol-5-yl)]GSFSKE[Nle][dF]DILDEK[Aib][Aib]KDFINWLIQTEITK-NH2; lactam 6-10, 14-18, 28-31; C-terminus assumed)", "values": [
      {"measurement": "Emax", "setting": "[1]", "value": 94.1, "unit": "%"},
      {"measurement": "EC50", "setting": "[1]", "value": 631, "unit": "pM"},
      {"measurement": "Emax", "setting": "[2]", "value": 104, "unit": "%"},
      {"measurement": "EC50", "setting": "[2]", "value": 251, "unit": "pM"}
    ]},
    {"smiles": "CCCC[C@@H]1NC(=O)[C@H](CCC(=O)O)NC(=O)[C@H](CC(=O)O)NC(=O)[C@@H](NC(=O)[C@H](Cc2ccccc2)NC(=O)[C@H](CO)NC(=O)CNC(=O)[C@H](Cc2nn[nH]n2)NC(=O)C(C)(C)C(=O)NCCc2c[nH]cn2)CCC(=O)NCCCC[C@@H](C(=O)N[C@H]2CCC(=O)NCCCC[C@@H](C(=O)N[C@H]3CCC(=O)NCCCC[C@@H](C(=O)N[C@@H](CC(=O)O)C(=O)N[C@@H](Cc4ccccc4)C(=O)N[C@H](C(=O)N[C@H]4CCC(=O)NCCCC[C@@H](C(=O)N[C@H]5CCCCNC(=O)CC[C@@H](C(N)=O)NC(=O)[C@H]([C@@H](C)O)NC(=O)[C@H]([C@@H](C)CC)NC(=O)[C@H](CCCCN)NC5=O)NC(=O)[C@H]([C@@H](C)CC)NC(=O)[C@H](CC(C)C)NC(=O)[C@H](Cc5c[nH]c6ccccc56)NC4=O)[C@@H](C)CC)NC(=O)[C@H](C)NC(=O)[C@H](C)NC3=O)NC(=O)[C@H](CC(=O)O)NC(=O)[C@H](CC(C)C)NC(=O)[C@H]([C@@H](C)CC)NC2=O)NC1=O", "note": "[Example 80]", "values": [
      {"measurement": "Emax", "setting": "[1]", "value": 64.1, "unit": "%"},
      {"measurement": "EC50", "setting": "[1]", "value": 3980, "unit": "pM"},
      {"measurement": "Emax", "setting": "[2]", "value": 99.9, "unit": "%"},
      {"measurement": "EC50", "setting": "[2]", "value": 200, "unit": "pM"}
    ]},
    {"smiles": "CCCC[C@@H]1NC(=O)[C@H](CCC(=O)O)NC(=O)[C@@H](NC(=O)[C@H](CO)NC(=O)[C@H](Cc2ccccc2)NC(=O)[C@H](CO)NC(=O)CNC(=O)[C@H](Cc2nn[nH]n2)NC(=O)C(C)(C)C(=O)NCCc2c[nH]cn2)CCCCNC(=O)C[C@@H](C(=O)N[C@H](C(=O)N[C@@H](CC(C)C)C(=O)N[C@@H](CC(=O)O)C(=O)N[C@H]2CC(=O)NCCCC[C@@H](C(=O)N[C@@H](CC(=O)O)C(=O)N[C@@H](Cc3ccccc3)C(=O)N[C@H](C(=O)N[C@@H](CC(N)=O)C(=O)N[C@@H](Cc3c[nH]c4ccccc34)C(=O)N[C@@H](CC(C)C)C(=O)N[C@H](C(=O)N[C@@H](CCC(N)=O)C(=O)N[C@H](C(=O)N[C@@H](CCCCN)C(=O)N[C@H](C(=O)N[C@H](C(=O)N[C@@H](Cc3ccccc3)C(N)=O)[C@@H](C)O)[C@@H](C)CC)[C@@H](C)O)[C@@H](C)CC)[C@@H](C)CC)NC(=O)[C@H](C)NC(=O)[C@H](C)NC(=O)[C@H](CCCCN)NC2=O)[C@@H](C)CC)NC(=O)[C@@H](Cc2ccccc2)NC1=O", "note": "[Example 114] ({Malonyl(2,2-Me2,histaminyl)}-[Ala(1H-tetrazol-5-yl)]GSFSKE[Nle][dF]DILDDKAAKDFINWLIQTKITF-NH2; lactam 6-10, 14-18 (inferred); C-terminus assumed)", "values": [
      {"measurement": "Emax", "setting": "[1]", "value": 89.1, "unit": "%"},
      {"measurement": "EC50", "setting": "[1]", "value": 3160, "unit": "pM"},
      {"measurement": "Emax", "setting": "[2]", "value": 102, "unit": "%"},
      {"measurement": "EC50", "setting": "[2]", "value": 20, "unit": "pM"}
    ]},
    {"smiles": "CCCC[C@H](NC(=O)[C@H](CCC(=O)O)NC(=O)[C@@H]1CC(=O)NCCCC[C@H](NC(=O)[C@H](Cc2nn[nH]n2)NC(=O)C(C)(C)C(=O)NCCc2c[nH]cn2)C(=O)N[C@@H](CO)C(=O)N[C@@H](Cc2ccccc2)C(=O)N[C@@H](CO)C(=O)N1)C(=O)N[C@H](Cc1ccccc1)C(=O)N[C@H]1CCCCNC(=O)C[C@@H](C(=O)N[C@@H](CCCCN)C(=O)N[C@@H](C)C(=O)N[C@@H](C)C(=O)NC(C)(C)C(=O)N[C@@H](CC(=O)O)C(=O)N[C@@H](Cc2ccccc2)C(=O)N[C@H](C(=O)N[C@H]2CCC(=O)NCCCC[C@@H](C(=O)N[C@H]3CCC(=O)NCCCC[C@@H](C(N)=O)NC(=O)[C@H]([C@@H](C)O)NC(=O)[C@H]([C@@H](C)CC)NC(=O)[C@H](CCCCN)NC3=O)NC(=O)[C@H]([C@@H](C)CC)NC(=O)[C@H](CC(C)C)NC(=O)[C@H](Cc3c[nH]c4ccccc34)NC2=O)[C@@H](C)CC)NC(=O)[C@H](CC(=O)O)NC(=O)[C@H](CC(C)C)NC(=O)[C@H]([C@@H](C)CC)NC1=O", "note": "[Example 42] ({Malonyl(2,2-Me2,histaminyl)}-[Ala(1H-tetrazol-5-yl)]KSFSDE[Nle][dF]KILDDKAA[Aib]DFIEWLIKEKITK-NH2; lactam 2-6, 10-14, 22-26, 27-31; C-terminus assumed)", "values": [
      {"measurement": "Emax", "setting": "[1]", "value": 94.1, "unit": "%"},
      {"measurement": "EC50", "setting": "[1]", "value": 200, "unit": "pM"},
      {"measurement": "Emax", "setting": "[2]", "value": 96.4, "unit": "%"},
      {"measurement": "EC50", "setting": "[2]", "value": 398, "unit": "pM"}
    ]}
  ]
}
